Source: patent US11274100B2, “EP300/CREBBP inhibitor” (Daiichi Sankyo Company, Limited, priority 2017, dated 2022)

Assays:
H3K27Ac = assay: Intracellular H3K27Ac inhibitory activity in LK2 cells (Test Example 2); type: cell-based; details: Homo sapiens, LK-2, cultured with compound for 3 hours, read-out: Test Example 2 H3K27Ac Inhibition (LK2) IC50
Protocol: [Test Example 2] Evaluation of Intracellular H3K27Ac Inhibitory Activity
LK2 cells derived from human squamous cell lung cancer were seeded in a 96 well plate at 40000 cells/100 μL/well, and were cultured overnight at 37° C. in 5% CO2. The LK2 cells were purchased from Human Science Research Resources Bank. […] The supernatant was discarded, 4% paraformaldehyde was added thereto at 100 μL/well, and the resultant was allowed to stand still at room temperature for 15 minutes. The 4% paraformaldehyde was discarded, and the resultant was washed with PBS-T. A quenching buffer (PBS-T containing 1% H2O2) was added thereto at of 100 μL/well, and the resultant was allowed to stand still at room temperature for 10 minutes. The resultant was washed with PBS-T, a blocking buffer (StartingBlocK T20 (TBS) Blocking Buffer (Thermo […], #37543)) was added thereto at 200 μL/well, and the resultant was allowed to stand still at room temperature for 1 hour. The supernatant was discarded, Acetyl-Histone H3 (Lys27) (D5E4) XP (registered trademark) Rabbit mAb (cell Signaling, #8173) diluted with a blocking buffer was added thereto at 50 μL/well, and the resultant was allowed to stand still at 4° C. overnight. The resultant was washed with PBS-T, Anti-Rabbit IgG-HRP (Cell Signaling, #7074S) diluted with a blocking buffer was added thereto at 50 μL/well, and the resultant was cultured at room temperature for 1 hour. The resultant was washed with PBS-T, SuperSignal (registered trademark) ELISA Pico Chemiluminescent Substrate (Thermo […], #37069) was added thereto at 50 μL/well, and a signal was measured using EnVision.

EP300 = EP300 (Homo sapiens, UniProt Q09472); assay: Histone acetyltransferase inhibitory activity against EP300 (Test Example 1); type: biochemical; details: 50 ng/mL EP300, 2 μM Acetyl-CoA, 100 nM Histone H4(1-25)-GSGSK (Biotin), 28° C. for 1 hour
Protocol: (§1) [Test Example 1] Evaluation of Histone
(§2) Acetyltransferase Inhibitory Activity against EP300 and CREBBP
(§3) 10 μL each of reaction solutions each containing a different concentration of the compound of each of Examples 1 to 108b (50 mM Tris-HCl (pH8.0), 0.1 mM EDTA, 1 mM dithiothreitol, 0.01% Tween-20, 0.01% Bovine serum albumin, 330 nM trichostatin A, 2 μM Acetyl-CoA (Sigma-Aldrich, #A2056), 100 nM Histone H4(1-25)-GSGSK (Biotin) (Anaspec, #65242-1), 1% dimethyl sulfoxide, 10 to 0.0006 μM of each compound, 50 ng/mL EP300 or 125 ng/mL CREBBP) was added to respective wells of a 384-well plate, and cultured at 28° C. for 1 hour. Thereafter, 5 μL of 30 μM Lys-CoA (Daiichi Sankyo Co., Ltd.) dissolved in LANCE detection buffer (Perkin Elmer Co., Ltd., #CR97-100) was added to each well. Furthermore, 5 μL of LANCE detection buffer containing 2 nM Eu-anti pan-Ac (Perkin Elmer Co., Ltd., #TRF0412) and 50 nM Sta-Ulight (Perkin Elmer Co., Ltd., #TRF0102) was added to each well, and the resultant was cultured at room temperature overnight. EnVision (Perkin Elmer Co., Ltd., Model 2104-0020) was used to measure ULight signals. […] EP300 and CREBBP were produced and purified by Daiichi Sankyo RD Novare Co., Ltd.

CREBBP = CREBBP (Homo sapiens, UniProt Q92793); assay: Histone acetyltransferase inhibitory activity against CREBBP (Test Example 1); type: biochemical; details: 125 ng/mL CREBBP, 2 μM Acetyl-CoA, 100 nM Histone H4(1-25)-GSGSK (Biotin), 28° C. for 1 hour
Protocol: as §1, §2, §3

Chain of CREBBP (Q92793 whole entry): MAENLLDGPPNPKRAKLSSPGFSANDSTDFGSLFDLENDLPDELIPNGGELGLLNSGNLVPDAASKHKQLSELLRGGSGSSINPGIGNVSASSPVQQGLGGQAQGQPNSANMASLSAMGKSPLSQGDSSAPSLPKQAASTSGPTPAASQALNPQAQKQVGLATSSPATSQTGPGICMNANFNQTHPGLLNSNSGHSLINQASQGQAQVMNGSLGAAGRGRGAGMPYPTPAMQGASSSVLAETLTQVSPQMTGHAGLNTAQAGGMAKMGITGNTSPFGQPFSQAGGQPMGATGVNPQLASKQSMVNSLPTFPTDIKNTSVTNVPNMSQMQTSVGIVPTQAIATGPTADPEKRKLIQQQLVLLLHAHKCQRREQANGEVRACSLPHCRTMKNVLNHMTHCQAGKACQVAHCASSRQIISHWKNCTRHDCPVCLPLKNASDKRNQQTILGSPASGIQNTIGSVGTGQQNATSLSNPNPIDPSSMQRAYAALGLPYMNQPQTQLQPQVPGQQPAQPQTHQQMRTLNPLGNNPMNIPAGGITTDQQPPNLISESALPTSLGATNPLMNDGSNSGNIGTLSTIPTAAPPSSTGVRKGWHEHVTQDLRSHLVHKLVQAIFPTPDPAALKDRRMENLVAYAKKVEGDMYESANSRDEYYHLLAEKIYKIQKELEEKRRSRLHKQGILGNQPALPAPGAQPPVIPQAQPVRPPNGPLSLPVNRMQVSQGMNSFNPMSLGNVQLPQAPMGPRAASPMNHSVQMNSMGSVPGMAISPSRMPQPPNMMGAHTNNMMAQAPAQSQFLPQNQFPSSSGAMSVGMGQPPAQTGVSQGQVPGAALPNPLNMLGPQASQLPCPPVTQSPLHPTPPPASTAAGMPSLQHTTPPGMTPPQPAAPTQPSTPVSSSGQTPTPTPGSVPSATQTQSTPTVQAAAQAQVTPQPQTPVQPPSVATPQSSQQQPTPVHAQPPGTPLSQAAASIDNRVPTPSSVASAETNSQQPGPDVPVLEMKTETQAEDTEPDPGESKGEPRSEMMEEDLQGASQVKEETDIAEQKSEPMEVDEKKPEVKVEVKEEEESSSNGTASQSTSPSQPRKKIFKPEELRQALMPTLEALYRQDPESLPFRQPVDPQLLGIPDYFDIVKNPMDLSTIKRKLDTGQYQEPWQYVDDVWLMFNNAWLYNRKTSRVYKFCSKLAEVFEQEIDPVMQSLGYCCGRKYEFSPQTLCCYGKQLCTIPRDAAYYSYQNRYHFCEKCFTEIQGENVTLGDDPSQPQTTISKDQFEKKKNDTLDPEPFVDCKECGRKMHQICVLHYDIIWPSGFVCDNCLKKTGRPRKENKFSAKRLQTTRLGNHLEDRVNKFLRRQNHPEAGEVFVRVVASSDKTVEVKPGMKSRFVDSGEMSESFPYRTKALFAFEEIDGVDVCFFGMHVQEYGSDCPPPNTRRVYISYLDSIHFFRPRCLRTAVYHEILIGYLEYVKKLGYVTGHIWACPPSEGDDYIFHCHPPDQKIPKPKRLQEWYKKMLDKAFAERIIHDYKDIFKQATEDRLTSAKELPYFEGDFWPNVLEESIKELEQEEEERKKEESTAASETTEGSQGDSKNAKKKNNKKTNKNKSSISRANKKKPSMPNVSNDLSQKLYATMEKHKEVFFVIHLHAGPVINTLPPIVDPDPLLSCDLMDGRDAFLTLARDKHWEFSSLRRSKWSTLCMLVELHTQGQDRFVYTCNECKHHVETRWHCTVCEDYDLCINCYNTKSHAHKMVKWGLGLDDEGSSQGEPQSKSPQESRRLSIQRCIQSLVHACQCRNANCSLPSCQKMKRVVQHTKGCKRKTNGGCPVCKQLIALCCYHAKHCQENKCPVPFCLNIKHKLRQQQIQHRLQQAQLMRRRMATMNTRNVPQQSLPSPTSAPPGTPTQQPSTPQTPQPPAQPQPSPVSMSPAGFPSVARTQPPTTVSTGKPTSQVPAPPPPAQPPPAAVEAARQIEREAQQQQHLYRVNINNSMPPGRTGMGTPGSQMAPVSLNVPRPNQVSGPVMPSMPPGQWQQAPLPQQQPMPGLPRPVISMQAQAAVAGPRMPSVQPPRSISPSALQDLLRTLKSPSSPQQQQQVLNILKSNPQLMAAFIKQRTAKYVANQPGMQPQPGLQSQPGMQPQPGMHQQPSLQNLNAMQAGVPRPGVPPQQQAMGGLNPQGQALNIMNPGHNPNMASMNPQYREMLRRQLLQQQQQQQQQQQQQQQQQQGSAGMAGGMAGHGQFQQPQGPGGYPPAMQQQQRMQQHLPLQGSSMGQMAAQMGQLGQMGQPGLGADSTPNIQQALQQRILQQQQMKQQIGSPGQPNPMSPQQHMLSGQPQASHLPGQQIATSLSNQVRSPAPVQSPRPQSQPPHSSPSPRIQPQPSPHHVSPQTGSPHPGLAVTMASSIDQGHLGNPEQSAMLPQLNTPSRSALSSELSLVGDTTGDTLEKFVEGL
Chain of EP300 (Q09472 whole entry): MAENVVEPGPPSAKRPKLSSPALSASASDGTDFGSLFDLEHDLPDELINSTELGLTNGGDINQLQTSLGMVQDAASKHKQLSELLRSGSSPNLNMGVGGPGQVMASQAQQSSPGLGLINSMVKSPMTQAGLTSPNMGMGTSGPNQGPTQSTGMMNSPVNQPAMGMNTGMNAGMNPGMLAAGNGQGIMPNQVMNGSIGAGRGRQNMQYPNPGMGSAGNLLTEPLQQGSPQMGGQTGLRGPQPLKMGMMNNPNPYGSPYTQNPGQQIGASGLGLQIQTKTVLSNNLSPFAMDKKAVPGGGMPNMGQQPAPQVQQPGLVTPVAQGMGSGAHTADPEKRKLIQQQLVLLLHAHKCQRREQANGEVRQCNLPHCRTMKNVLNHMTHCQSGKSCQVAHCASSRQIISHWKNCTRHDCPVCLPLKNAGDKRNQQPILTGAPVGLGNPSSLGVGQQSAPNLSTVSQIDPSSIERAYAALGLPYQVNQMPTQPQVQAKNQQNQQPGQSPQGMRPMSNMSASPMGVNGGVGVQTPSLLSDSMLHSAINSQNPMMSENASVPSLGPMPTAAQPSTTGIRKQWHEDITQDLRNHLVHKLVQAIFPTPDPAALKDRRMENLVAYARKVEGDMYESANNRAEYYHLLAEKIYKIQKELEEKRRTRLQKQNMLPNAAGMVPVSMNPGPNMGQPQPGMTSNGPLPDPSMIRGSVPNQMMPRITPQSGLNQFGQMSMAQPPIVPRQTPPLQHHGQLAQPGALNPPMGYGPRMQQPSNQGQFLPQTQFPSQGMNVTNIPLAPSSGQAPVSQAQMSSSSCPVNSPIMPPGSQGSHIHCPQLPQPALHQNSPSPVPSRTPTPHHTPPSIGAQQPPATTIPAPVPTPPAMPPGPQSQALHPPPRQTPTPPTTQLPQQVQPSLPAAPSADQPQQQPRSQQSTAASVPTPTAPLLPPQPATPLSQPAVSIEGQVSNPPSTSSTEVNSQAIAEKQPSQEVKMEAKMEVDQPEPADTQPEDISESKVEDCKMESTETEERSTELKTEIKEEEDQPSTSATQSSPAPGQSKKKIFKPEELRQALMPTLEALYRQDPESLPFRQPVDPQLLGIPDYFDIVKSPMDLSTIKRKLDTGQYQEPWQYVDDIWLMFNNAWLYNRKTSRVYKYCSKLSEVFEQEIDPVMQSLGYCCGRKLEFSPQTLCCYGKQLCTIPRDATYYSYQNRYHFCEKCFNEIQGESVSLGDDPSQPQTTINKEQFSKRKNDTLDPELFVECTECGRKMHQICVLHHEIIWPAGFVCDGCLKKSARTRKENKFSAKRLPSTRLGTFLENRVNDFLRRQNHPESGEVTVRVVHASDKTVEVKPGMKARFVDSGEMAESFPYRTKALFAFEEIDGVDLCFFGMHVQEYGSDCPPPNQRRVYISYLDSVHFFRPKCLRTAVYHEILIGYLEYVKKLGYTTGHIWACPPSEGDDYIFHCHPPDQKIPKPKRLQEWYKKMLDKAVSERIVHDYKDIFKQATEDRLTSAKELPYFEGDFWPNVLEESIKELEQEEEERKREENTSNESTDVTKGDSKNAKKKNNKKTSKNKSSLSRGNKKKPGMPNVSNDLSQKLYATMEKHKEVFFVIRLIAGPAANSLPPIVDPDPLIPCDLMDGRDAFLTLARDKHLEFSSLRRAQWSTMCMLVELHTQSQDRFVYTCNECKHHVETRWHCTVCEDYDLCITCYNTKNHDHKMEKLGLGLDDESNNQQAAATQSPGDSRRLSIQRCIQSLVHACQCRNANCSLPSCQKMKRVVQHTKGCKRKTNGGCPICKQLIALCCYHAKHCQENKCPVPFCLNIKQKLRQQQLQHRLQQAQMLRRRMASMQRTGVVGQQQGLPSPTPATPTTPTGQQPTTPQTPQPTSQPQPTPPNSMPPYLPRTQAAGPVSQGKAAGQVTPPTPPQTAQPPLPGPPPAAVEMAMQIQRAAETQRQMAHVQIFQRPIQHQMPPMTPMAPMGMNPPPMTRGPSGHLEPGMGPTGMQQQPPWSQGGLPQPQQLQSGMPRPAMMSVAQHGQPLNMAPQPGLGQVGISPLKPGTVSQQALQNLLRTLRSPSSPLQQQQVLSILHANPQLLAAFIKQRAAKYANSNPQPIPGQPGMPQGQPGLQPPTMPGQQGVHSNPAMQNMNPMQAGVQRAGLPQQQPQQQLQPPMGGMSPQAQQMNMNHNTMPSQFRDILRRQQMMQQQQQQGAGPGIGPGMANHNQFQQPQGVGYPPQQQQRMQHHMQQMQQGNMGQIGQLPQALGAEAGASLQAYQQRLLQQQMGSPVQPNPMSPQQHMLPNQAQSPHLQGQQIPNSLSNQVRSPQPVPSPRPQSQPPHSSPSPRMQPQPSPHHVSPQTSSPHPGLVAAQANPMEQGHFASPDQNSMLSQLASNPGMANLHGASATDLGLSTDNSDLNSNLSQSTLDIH

Structure (SMILES) | IC50 (H3K27Ac) | IC50 (EP300) | IC50 (CREBBP)
COc1ccc(C2(C(=O)N(C)CC(=O)Nc3cccc4[nH]ncc34)CCCCC2)cc1 [Example 2, N-[2-(1H-Indazol-4-ylamino)-2-oxoethyl]-1-(4-methoxyphenyl)-N-methylcyclohexanecarboxamide] | 1.01 µM | 0.193 µM | 0.128 µM
COc1ccc(C2(C(=O)N3CCCC3C(=O)Nc3cccc4c3cnn4C)CCCCC2)cc1 (stereo not drawn) [Example 3, 1-{[1-(4-Methoxyphenyl)cyclohexyl]carbonyl}-N-(1-methyl-1H-indazol-4-yl)prolinamide] | 10.6 µM |  | 
O=C(O)c1ccc(C2(C(=O)N3CCC[C@@H]3C(=O)Nc3cccc4[nH]ncc34)CCCC2)cc1 [Example 4, 4-(1-{[(2R)-2-(1H-Indazol-4-ylcarbamoyl)pyrrolidin-1-yl]carbonyl}cyclopentyl)benzoic acid] | 11.7 µM |  | 
COc1ccc(C2(C(=O)N3C[C@H](O)C[C@@H]3C(=O)Nc3cccc4[nH]ncc34)CCCC2)cc1 [Example 5, (4R)-4-Hydroxy-N-1H-indazol-4-yl-1-{[1-(4-methoxyphenyl)cyclopentyl]carbonyl}-D-prolinamide] | 1.03 µM | 0.259 µM | 0.334 µM
COc1ccc(C2(C(=O)N3C[C@H](OC)C[C@@H]3C(=O)Nc3cccc4[nH]ncc34)CCCC2)cc1 [Example 6, (4R)—N-1H-Indazol-4-yl-4-methoxy-1-{[1-(4-methoxyphenyl)cyclopentyl]carbonyl}-D-prolinamide] | 9.64 µM |  | 
COc1ccc(C2(C(=O)N3C[C@@H](F)C[C@@H]3C(=O)Nc3cccc4[nH]ncc34)CCCC2)cc1 [Example 7, (4S)-4-Fluoro-N-1H-indazol-4-yl-1-{[1-(4-methoxyphenyl)cyclopentyl]carbonyl}-D-prolinamide] | 8.75 µM |  | 
COc1ccc(C2(C(=O)N3CCC[C@@H]3C(=O)Nc3ccccc3)CCCC2)cc1 [Example 8, 1-{[1-(4-Methoxyphenyl)cyclopentyl]carbonyl}-N-phenyl-D-prolinamide] | 6.53 µM |  | 
COc1ccc(C2(C(=O)N3CCC[C@@H]3C(=O)Nc3cccc(C)c3)CCCC2)cc1 [Example 9, 1-{[1-(4-Methoxyphenyl)cyclopentyl]carbonyl}-N-(3-methylphenyl)-D-prolinamide] | 8.45 µM |  | 
COc1ccc(C2(C(=O)N3CCC[C@@H]3C(=O)Nc3ccccc3OC)CCCC2)cc1 [Example 10, N-(2-Methoxyphenyl)-1-{[1-(4-methoxyphenyl)cyclopentyl]carbonyl}-D-prolinamide] | 6.11 µM |  | 
COc1ccc(C2(C(=O)N3CCC[C@@H]3C(=O)Nc3ccncc3)CCCC2)cc1 [Example 11, 1-{[1-(4-Methoxyphenyl)cyclopentyl]carbonyl}-N-pyridin-4-yl-D-prolinamide] | 8.06 µM |  | 
COc1ccc(C2(C(=O)N3CCC[C@@H]3C(=O)Nc3ccc(OCc4ccccc4)cc3)CCCC2)cc1 [Example 12, N-[4-(Benzyloxy)phenyl]-1-{[1-(4-methoxyphenyl)cyclopentyl]carbonyl}-D-prolinamide] | 2.58 µM |  | 
COc1ccc(C2(C(=O)N3CCC[C@@H]3C(=O)Nc3cccc4ccccc34)CCCC2)cc1 [Example 13, 1-{[1-(4-Methoxyphenyl)cyclopentyl]carbonyl}-N-naphthalen-1-yl-D-prolinamide] | 3.99 µM |  | 
COc1ccc(C2(C(=O)N3CCC[C@@H]3C(=O)Nc3cccc4cccnc34)CCCC2)cc1 [Example 14, 1-{[1-(4-Methoxyphenyl)cyclopentyl]carbonyl}-N-quinolin-8-yl-D-prolinamide] | 6.67 µM |  | 
COc1ccc(C2(C(=O)N3CCC[C@@H]3C(=O)Nc3cccc(N)n3)CCCC2)cc1 [Example 15, N-(6-Aminopyridin-2-yl)-1-{[1-(4-methoxyphenyl)cyclopentyl]carbonyl}-D-prolinamide] | 0.908 µM | 0.218 µM | 0.353 µM
COc1ccc(C2(C(=O)N3CCC[C@@H]3C(=O)Nc3cccc4[nH]ccc34)CCCC2)cc1 [Example 16, N-1H-Indol-4-yl-1-{[1-(4-methoxyphenyl)cyclopentyl]carbonyl}-D-prolinamide] | 0.304 µM | 0.061 µM | 0.095 µM
COc1ccc(C2(C(=O)N3CCC[C@@H]3C(=O)Nc3ccc4[nH]ccc4c3)CCCC2)cc1 [Example 17, N-1H-Indol-5-yl-1-{[1-(4-methoxyphenyl)cyclopentyl]carbonyl}-D-prolinamide] | 0.709 µM | 0.213 µM | 0.237 µM
COc1ccc(C2(C(=O)N3CCC[C@@H]3C(=O)Nc3ccc4c(c3)CCC(=O)N4)CCCC2)cc1 [Example 18, l-{[1-(4-Methoxyphenyl)cyclopentyl]carbonyl}-N-(2-oxo-1,2,3,4-tetrahydroquinolin-6-yl)-D-prolinamide] | 3.34 µM |  | 
COc1ccc(C2(C(=O)N3CCC[C@@H]3C(=O)Nc3ccc4[nH]c(=O)[nH]c4c3)CCCC2)cc1 [Example 19, l-{[1-(4-Methoxyphenyl)cyclopentyl]carbonyl}-N-(2-oxo-2,3-dihydro-1H-benzimidazol-5-yl)-D-prolinamide] | 1.05 µM | 0.171 µM | 0.169 µM
COc1ccc(C2(C(=O)N3CCC[C@@H]3C(=O)Nc3ncccn3)CCCC2)cc1 [Example 20, 1-{[1-(4-Methoxyphenyl)cyclopentyl]carbonyl}-N-pyrimidin-2-yl-D-prolinamide] | 7.72 µM |  | 
COc1ccc(C2(C(=O)N3CCC[C@@H]3C(=O)Nc3ccc(O)c(Cl)c3)CCCC2)cc1 [Example 21, N-(3-Chloro-4-hydroxy-phenyl)-1-{[1-(4-methoxyphenyl)cyclopentyl]carbonyl}-D-prolinamide] | 0.458 µM | 0.13 µM | 0.036 µM
COc1ccc(C2(C(=O)N3[C@H](C)CC[C@@H]3C(=O)Nc3cccc4[nH]ncc34)CCCC2)cc1 [Example 25, (5R)—N-1H-Indazol-4-yl-1-{[1-(4-methoxyphenyl)cyclopentyl]carbonyl}-5-methyl-D-prolinamide] | 5.32 µM |  | 
COc1ccc(C2(C(=O)N3CCCCC[C@@H]3C(=O)Nc3ccccc3C#N)CCCC2)cc1 [Example 27, (2R)—N-(2-Cyanophenyl)-1-{[1-(4-methoxyphenyl)cyclopentyl]carbonyl}azepan-2-carboxamide] | 2.53 µM |  | 
COc1ccc(C2(C(=O)N3C[S+]([O-])C[C@@H]3C(=O)Nc3cccc4[nH]ncc34)CCCC2)cc1 (stereo partly drawn) [Example 28b, (4S)—N-(1H-Indazol-4-yl)-3-{[1-(4-methoxyphenyl)cyclopentyl]carbonyl}-1,3-thiazolidin-4-carboxamide 1-oxide] | 6.88 µM |  | 
C#C[C@@]1(O)C[C@H](C(=O)Nc2ccccc2Cl)N(C(=O)C2(c3ccc(OC)cc3)CCCC2)C1 [Example 32, (4S)—N-(2-Chlorophenyl)-4-ethynyl-4-hydroxy-1-{[1-(4-methoxyphenyl)cyclopentyl]carbonyl}-D-prolinamide] | 1.65 µM |  | 
COc1ccc(C2(C(=O)N3C[C@H](F)C[C@@H]3C(=O)Nc3cccc4[nH]ncc34)CCCOC2)cc1 (stereo partly drawn) [Example 42, (4R)-4-Fluoro-N-1H-indazol-4-yl-1-{[3-(4-methoxyphenyl)tetrahydro-2H-pyran-3-yl]carbonyl}-D-prolinamide] | 4.01 µM |  | 
COc1ccc(C2(C(=O)N3C[C@H](F)C[C@@H]3C(=O)Nc3cccc4[nH]ncc34)CCCCO2)cc1 (stereo partly drawn) [Example 43, (4R)-4-Fluoro-N-1H-indazol-4-yl-1-{[2-(4-methoxyphenyl)tetrahydro-2H-pyran-2-yl]carbonyl}-D-prolinamide] | 6.45 µM |  | 
COc1ccc(C2(C(=O)N3CCC[C@@H]3C(=O)Nc3cccc4[nH]ncc34)CCC(F)(F)CC2)cc1 [Example 55] | 2.02 µM |  | 
COc1ccc(C2(C(=O)N3CCC[C@@H]3C(=O)Nc3cccc4[nH]cnc34)CCCC2)cc1 [Example 59] | 2.5 µM |  | 
